ChEMBL document CHEMBL1201862, “PubChem BioAssay data set” (2004)
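Protocol summary: plate cells (96-well), add compound at 5 concentrations, incubate 48 h, interpolate endpoints linearly. GI50: concentration for 50% inhibition of growth.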 Active and inactive are the calls of the source. No stated cut-off is given here; in the data, active = GI50 up to about 1.1 µM and inactive = higher.

Key:
Assay in all cases: DTP human tumour cell line panel, 48 h
DLD-1 = test system: DLD-1
DMS-273 = test system: DMS-273
HOP-18 = test system: HOP-18
LXFL 529 = test system: LXFL 529
RXF 631 = test system: RXF 631
M19-MEL = test system: M19-MEL
XF498 = test system: XF498
SNB-78 = test system: SNB-78
DMS-114 = test system: DMS-114

Measured: GI50

CN(C)c1[se]nc2c1c(=O)n(C)c(=O)n2C
inactive: DLD-1 > 100 µM | DMS-273 > 100 µM | HOP-18 19.4 µM | LXFL 529 > 100 µM | RXF 631 > 100 µM | M19-MEL > 100 µM | XF498 > 100 µM | SNB-78 > 100 µM | DMS-114 > 100 µM
